In paper PMC5729429, “Gimatecan exerts potent antitumor activity against gastric cancer in vitro and in vivo via AKT and MAPK signaling pathways” (Journal of Translational Medicine, 2017):
Counter-ions that a name gives are not always drawn.

Experiments:
DNA TopI = assay: Western blot of DNA TopI expression in GC cells; format: cell-based, human; details: SNU-1, HGC27 and NCI-N87; 48 h; gimatecan at 100 nM or more; irinotecan even at high concentrations
Method: (§1) SNU-1, HGC27 and NCI-N87 cells were starved in serum-free medium overnight, exposed to inhibitors for 48 h and harvested at 70–80% confluence. Total protein was extracted from cells or xenograft tissues on ice, using RIPA Lysis Buffer (Beyotime, Shanghai, China) supplemented with complete protease inhibitor and phosphatase inhibitor cocktail (Roche, Basel, Switzerland). Protein concentration was measured using a BCA Protein Assay Kit (Beyotime, Shanghai, China), and 50 μg protein from each sample was separated by 10% SDS-PAGE. After transfer to nitrocellulose membranes (GE Healthcare, Piscataway, NJ), samples were incubated with corresponding primary antibodies diluted in 5% BSA at 4 °C overnight and then with secondary antibodies at room temperature for 1 h. Proteins were visualized with a chemiluminescent detection system (GE Healthcare), using ECL plus Western blot reagents (GE Healthcare). Western-blotting bands were quantified and normalized by ImageJ software.
Cells were starved in serum-free medium overnight, exposed to gimatecan or irinotecan for 48 h and harvested at 70–80% confluence. Total protein of SNU-1 and NCI-N87 was extracted and the expression of TopI, pAKT, pMEK, pERK, p-p38 MAPK and pJNK2 were assessed by western-blotting followed by quantification and normalization by ImageJ. All data are mean ± SD of three independent experiments. Compared with controls, *p < 0.05

Bak, Bcl-2, cleaved PARP = assay: Western blot of Bak, Bcl-2, PARP in GC cells; format: cell-based, human; details: SNU-1 and HGC27
Method: as §1, with “Proteins were visualized with a chemiluminescent detection system (GE Healthcare), using ECL plus Western blot reagents (GE Healthcare).” left out
Cells were treated with gimatecan (0–1 µM) and irinotecan (0–1 µM) for 24 h and stained with Annexin V-PE/7-AAD. Sums of percentages of early apoptosis (Q3) and late apoptosis (Q2) were calculated as the total apoptosis ratios. c, d Pro- and anti-apoptotic proteins including Bcl-2, Bak, PARP and cleaved PARP were assessed by western-blotting in SNU-1 and NCI-N87 cells. Western-blotting bands were quantified and normalized by ImageJ. […]

| SMILES | expression of DNA TopI (DNA TopI) | Bak, Bcl-2 and PARP protein after treatment (Bak, Bcl-2, cleaved PARP) |
| --- | --- | --- |
| CC[C@@]1(O)C(=O)OCc2c1cc1n(c2=O)Cc2c-1nc1ccccc1c2/C=N/OC(C)(C)C [Gimatecan, 7-t-butoxyiminomethylcamptothecin] | significantly inhibited | Bak and cleaved PARP expression was increased and Bcl-2 expression was inhibited |
| CCc1c2c(nc3ccc(OC(=O)N4CCC(N5CCCCC5)CC4)cc13)-c1cc3c(c(=O)n1C2)COC(=O)[C@]3(O)CC [Irinotecan, irinotecan hydrochloride] | little effect | apoptosis was not induced |
